Measurements published in patent US9845310B2 (priority 2015, dated 2017).

These compounds were tested against APJ (Homo sapiens (Human), UniProt P35414) (assay: [35S]GTPγS binding assay on membranes from CHO cells stably expressing human APJ receptor). Conditions: Activity hAPJ SPA EC50 IP (μM).
Type: biochemical

Sequence of APJ (P35414 whole entry): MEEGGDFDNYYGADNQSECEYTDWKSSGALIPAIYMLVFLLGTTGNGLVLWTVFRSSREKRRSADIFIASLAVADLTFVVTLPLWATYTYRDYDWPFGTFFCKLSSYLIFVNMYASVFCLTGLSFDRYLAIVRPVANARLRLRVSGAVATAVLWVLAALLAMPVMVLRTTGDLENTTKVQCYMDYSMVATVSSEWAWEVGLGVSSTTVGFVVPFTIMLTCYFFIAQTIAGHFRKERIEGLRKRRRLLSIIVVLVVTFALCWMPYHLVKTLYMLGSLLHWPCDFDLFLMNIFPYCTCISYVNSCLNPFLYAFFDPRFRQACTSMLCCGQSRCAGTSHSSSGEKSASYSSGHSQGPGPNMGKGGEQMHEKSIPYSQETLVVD

Compound	EC50
COc1cccc(OC)c1-n1c(NS(=O)(=O)[C@@H](C)[C@H](OC)c2ncnn2C)nnc1-c1cncc(C)c1 (single isomer, unassigned) [Example 781.0, (1R,2S)-N-(4-(2,6-dimethoxyphenyl)-5-(5-methyl-3-pyridinyl)-4H-1,2,4-triazol-3-yl)-1-methoxy-1-(1-methyl-1H-1,2,4-triazol-5-yl)-2-propanesulfonamide or (1S,2R)-N-(4-(2,6-dimethoxyphenyl)-5-(5-methyl-3-pyridinyl)-4H-1,2,4-triazol-3-yl)-1-methoxy-1-(1-methyl-1H-1,2,4-triazol-5-yl)-2-propanesulfonamide]	0.59 µM
COc1cccc(OC)c1-n1c(NS(=O)(=O)[C@@H](C)[C@H](OC)c2ncnn2C)nnc1-c1cncc(C)c1 (single isomer, unassigned) [Example 782.0, (1R,2S)-N-(4-(2,6-dimethoxyphenyl)-5-(5-methyl-3-pyridinyl)-4H-1,2,4-triazol-3-yl)-1-methoxy-1-(1-methyl-1H-1,2,4-triazol-5-yl)-2-propanesulfonamide or (1S,2R)-N-(4-(2,6-dimethoxyphenyl)-5-(5-methyl-3-pyridinyl)-4H-1,2,4-triazol-3-yl)-1-methoxy-1-(1-methyl-1H-1,2,4-triazol-5-yl)-2-propanesulfonamide]	0.028 µM
COc1cccc(OC)c1-n1c(NS(=O)(=O)[C@H](C)[C@H](OC(C)C)c2cnc(C)cn2)nnc1-c1cccc(C)n1 (single isomer, unassigned) [Example 824.0, (1S,2S)-N-(4-(2,6-dimethoxyphenyl)-5-(6-methylpyridin-2-yl)-4H-1,2,4-triazol-3-yl)-1-isopropoxy-1-(5-methylpyrazin-2-yl)propane-2-sulfonamide or (1R,2R)-N-(4-(2,6-dimethoxyphenyl)-5-(6-methylpyridin-2-yl)-4H-1,2,4-triazol-3-yl)-1-isopropoxy-1-(5-methylpyrazin-2-yl)propane-2-sulfonamide]	0.00047 µM

Same assay, conditions: read-out: Activity hAPJ SPA EC50 IP

Compound	EC50
COc1cccc(-c2nnc(NS(=O)(=O)[C@H](C)[C@H](OC(C)C)c3cnc(C)cn3)n2-c2c(OC)cccc2OC)n1 (single isomer, unassigned) [Example 825.0, (1S,2S)-N-(4-(2,6-dimethoxyphenyl)-5-(6-methoxypyridin-2-yl)-4H-1,2,4-triazol-3-yl)-1-isopropoxy-1-(5-methylpyrazin-2-yl)propane-2-sulfonamide or (1R,2R)-N-(4-(2,6-dimethoxyphenyl)-5-(6-methoxypyridin-2-yl)-4H-1,2,4-triazol-3-yl)-1-isopropoxy-1-(5-methylpyrazin-2-yl)propane-2-sulfonamide]	0.00015 µM
COc1cccc(OC)c1-n1c(NS(=O)(=O)[C@H](C)[C@@H](OC(C)C)c2ncc(C)cn2)nnc1-c1cccnc1 (stereo in doubt) [Example 624.0, (1S,2R)-N-(4-(2,6-dimethoxyphenyl)-5-(3-pyridinyl)-4H-1,2,4-triazol-3-yl)-1-(1-methylethoxy)-1-(5-methyl-2-pyrimidinyl)-2-propanesulfonamide, (1R,2S)-N-(4-(2,6-dimethoxyphenyl)-5-(3-pyridinyl)-4H-1,2,4-triazol-3-yl)-1-(1-methylethoxy)-1-(5-methyl-2-pyrimidinyl)-2-propanesulfonamide]	0.16 µM
COc1cccc(OC)c1-n1c(NS(=O)(=O)[C@@H](C)[C@@H](OC(C)C)c2ncc(C)cn2)nnc1-c1cccnc1 (stereo in doubt) [Example 625.0]	0.11 µM
COc1cccc(OC)c1-n1c(NS(=O)(=O)[C@H](C)[C@@H](OC(C)C)c2ncc(C)cn2)nnc1-c1cccnc1 (stereo in doubt) [Example 626.0, (1S,2R)-N-(4-(2,6-dimethoxyphenyl)-5-(3-pyridinyl)-4H-1,2,4-triazol-3-yl)-1-(1-methylethoxy)-1-(5-methyl-2-pyrimidinyl)-2-propanesulfonamide, (1R,2S)-N-(4-(2,6-dimethoxyphenyl)-5-(3-pyridinyl)-4H-1,2,4-triazol-3-yl)-1-(1-methylethoxy)-1-(5-methyl-2-pyrimidinyl)-2-propanesulfonamide]	0.0018 µM
